Test results taken from patent US20260248784A1, “BTK Degrader and Use Thereof” (JIANGSU VCARE PHARMATECH CO., LTD., priority 2023, published 2026).

Key:
[1] = test system: mino cells; test: Activity test in Mino cells (CCK8 proliferation inhibition); format: cell-based; conditions: Homo sapiens, 72 h, 3 days, read-out: Cell inhibition IC50
Experimental: Cell culture: mino cells (culture conditions: RPMI1640 medium+15% FBS, 37° C., 5% CO2). Cell plating: The cells subcultured into the logarithmic growth phase were collected and transferred into a centrifuge tube, and centrifuged at 800 rpm for 5 min. The cells were resuspended in complete medium and counted. The cells were diluted and adjusted to a final concentration of 200000 cells/mL. The cells were then seeded into a 96-well plate with 100 μL per well. Cell administration: Each group of drug solutions was added into the 96-well plate, 100 μL per well, n=3 for each drug concentration. Meanwhile, negative wells (n=6) and blank wells (n=3) were set up. The 96-well plate was incubated in the incubator for further 3 days. CCK8 reagent was added to the 96-well plate, 20 μL per well, and then the plate was placed in the incubator for further 4 h. The absorbance of the solution was measured at a wavelength of 450 nm using an enzyme reader. The proliferation inhibition rate was calculated and the half inhibitory concentration IC50 value was calculated.

[2] = test system: Mino cell xenograft; test: Activity test in Mino cell xenograft model; format: in vivo, NOD SCID mice; conditions: 30 mg/kg
[3] = test system: REC-1 (BTK C481S) cell xenograft; test: Activity test in REC-1 (BTK C481S) cell xenograft model; format: in vivo, BALB/c-Nude mice; conditions: REC-1 (BTK C481S) xenograft; for Tumor weight: Mean ± SEM
Experimental: REC-1 (BTK C481S) cell culture (culture conditions: RPMI1640 medium+10% FBS, 37° C., 5% CO2). The cells subcultured into the logarithmic growth phase were collected and transferred into a centrifuge tube, and centrifuged at 1300 rpm for 3 min. On the day of inoculation, the cell density was adjusted to 5*10^7 cells/mL.
Cell inoculation: The inoculation site was selected at the right shoulder blade of the experimental animal, and the inoculation density was 5*10^6 cells+matrix gel/200 μL/animal.
Experimental animals: BALB/c-Nude, female, 6-8 W.
Grouped administration: When the average tumor volume reached 80-120 mm^3, the animals were randomly grouped according to tumor volume, with the coefficient of variation (CV) of tumor volumes not exceeding ⅓ of the mean volume. The day of grouping was defined as D0, and the administration began on the day of grouping. The body weight of the mice was measured before administration, and the administration was based on the body weight on that day.
Experimental observation and data collection: After cell inoculation, the effect of the tumor on the normal behavior of the animals was routinely monitored every week. Specific contents include the activity, food and water intake, weight gain or loss, eyes, fur and other abnormalities of the experimental animals. After the start of administration, the mice were weighed and dosed daily, and tumor volume was measured twice a week. The tumor volume was calculated as follows: tumor volume (mm^3)=0.52×tumor long diameter (mm)×tumor short diameter (mm)^2. At the end of the experiment, the following indicators were analyzed: tumor growth curve, mouse body weight curve, tumor weight, uniform photography of the excised tumors arranged according to groups, and calculation of tumor volume inhibition rate (TGI).
TGITV (Relative tumor volume inhibition rate) calculation formula:
[formula] • Vnt: Tumor volume of the mouse numbered n on day t; • Vn0: Tumor volume of the mouse numbered n on day 0; • RTVn: Relative tumor volume of the mouse numbered n on day t; • mean RTVtreat: RTV mean of the administration group; • mean RTVvehicle: RTV mean of the Vehicle group; • The experimental results such as tumor volume and mouse body weight of each group of animals are expressed as mean±standard error of the mean (Mean±SEM). T test was used for comparison between the two groups. One-way ANOVA was used for comparisons among three or more groups.

[4] = PK test in mice; format: in vivo
Experimental: Mice were weighed and dosed, and about 50 μL of whole blood was collected from the orbital venous plexus at 5 min, 0.25 h, 0.5 h, 1 h, 2 h, 4 h, 6 h, 8 h, and 24 h after administration, using EDTA-K2 as anticoagulant. The blood samples were centrifuged at 4000 rpm for 10 min at 4° C., and 20 μL of the supernatant plasma sample was taken into an EP tube and immediately stored in a −80° C. refrigerator until analysis. 10 μL of the plasma sample was transferred to a 96-well plate and 250 μL of acetonitrile (containing internal standard) was added to precipitate proteins. The samples were centrifuged at 4000 rpm/min for 20 min in a 4° C. centrifuge. The supernatant was transferred and injected into LC MS/MS to detect the drug concentration. The data were processed by Thermo LC Quan software, and the standard curve was established using the internal standard method, with the theoretical standard curve concentration as the abscissa and the peak area ratio as the ordinate (test compound peak area/internal standard peak area). Sample concentrations were calculated using the standard curve. The pharmacokinetic parameters were calculated using WinNonlin 8.2 software.

COc1ccc(F)cc1C(=O)NCc1ccc(-c2nn(-c3ccc(N4CCN(CC5CCN(c6ccc(N7CCC(=O)NC7=O)c(C)c6)CC5)CC4)nc3)c3ncnc(N)c23)cc1 [Compound I-2, N-(4-(4-amino-1-(6-(4-((1-(4-(2,4-dioxotetrahydropyrimidin-1(2H)-yl)-3-methylphenyl)piperidin-4-yl)methyl)piperazin-1-yl)pyridin-3-yl)-1H-pyrazolo[3,4-d]pyrimidin-3-yl)benzyl)-5-fluoro-2-methoxybenzamide]
IC50 [1]: 14 nM
TGITV (Relative tumor volume inhibition rate) [2]: 80.75%
Tumor volume ([2]; end of experiment, Mean ± SD): 955.81 ± 343.68 mm^3
T/C (Tweight/Cweight) ([3]; 15 mg/kg): 11.93%
Tumor weight ([3]; 15 mg/kg): 0.345 ± 0.082 g
T/C (Tweight/Cweight) ([3]; 30 mg/kg): 12.76%
Tumor weight ([3]; 30 mg/kg): 0.369 ± 0.043 g
Bioavialibility ([4]; PO 20 mg/kg vs IV 5 mg/kg): 51.8%
AUC(0-inf) ([4]; mouse, IV 5 mg/kg, plasma): 44500 ± 4610 ng·h/mL
AUC(0-t) ([4]; mouse, IV 5 mg/kg, plasma): 42800 ± 5760 ng·h/mL
MRT ([4]; mouse, IV 5 mg/kg, plasma): 5.25 ± 0.17 h
half-life ([4]; mouse, IV 5 mg/kg, plasma): 5.35 ± 1.61 h
AUC(0-inf) ([4]; mouse, PO 20 mg/kg, plasma): 92200 ± 33200 ng·h/mL
AUC(0-t) ([4]; mouse, PO 20 mg/kg, plasma): 83500 ± 22200 ng·h/mL
Cmax ([4]; mouse, PO 20 mg/kg, plasma): 8950 ± 339 ng/mL
MRT ([4]; mouse, PO 20 mg/kg, plasma): 6.46 ± 1.4 h
half-life ([4]; mouse, PO 20 mg/kg, plasma): 6.32 ± 3.49 h
